Source: patent US8877747B2, “Indenone derivative and pharmaceutical composition comprising same” (Korea Research Institute of Chemical Technology, priority 2009, dated 2014)
Where a name gives a salt, the structure may show the parent alone.

test system: MC3T3-E1 cells; experiment: ALP activity, differentiation of osteoblast cells; format: cell-based; conditions: Mus musculus, MC3T3-E1, 144 h; MC3T3E1 cells treated with 10 μM compound and OF; relates activity to OF-only group (100%); higher = more efficacious
Description: To examine the effects of the inventive indenone derivatives on the differentiation and activation of osteoblast cells, the activity and expression of alkaline phosphatase (ALP), a marker for the differentiation of osteoblast cells, and the bone nodule formation using a mouse derived osteoblast-like cells, MC3T3-E1 (ATCC, Japan) or a primary mouse calvaria derived preosteoblastic cells were observed.
MC3T3-E 1 cells were seeded in a medium containing osteogenic factors (OF) such as ascorbic acids and β-glycerophosphates (b-GP), and each compound of Examples was added thereto at a concentration of 0.1, 1 and 10 μM. The cells were incubated for 6 days (MC3T3-E1 cells) or 7 days (primary mouse calvaria derived preosteoblastic cells) in a 37° C. CO2 incubator. Then, the culture medium was replaced with a fresh medium together with the test compound every two or three days. On the last day, the medium was centrifuged to remove the supernatant, and the cells were washed with PBS. The washed cells were subjected to a 3-cycle freege-thaw treatment using a −70° C. deep freezer to allow enzymes elute in a lysis buffer. The lysed protein was quantified, followed by measurement of ALP activity using 4-nitrophenylphosphate.
Further, a group treated only with DMSO or OF was tested for ALP activities for comparison.

Q: How did the activity at 10 µM turn out when O=C1C(c2cccnc2)=C(c2ccccc2F)c2ccc(OCCN3CCOCC3)cc21 [Example 80, 6-(2-morpholinoethoxy)-3-(2-fluorophenyl)-2-(pyridin-3-yl)-1H-inden-1-one] was run?
A: 74%

Q: O=C1C(c2cccnc2)=C(c2cccc(F)c2)c2ccc(OCCN3CCOCC3)cc21 [Example 81, 6-(2-morpholinoethoxy)-3-(3-fluorophenyl)-2-(pyridin-3-yl)-1H-inden-1-one] was tested. Which activity at 10 µM did it give?
A: 116%

Q: For O=C1C(c2cccnc2)=C(c2ccc(F)cc2F)c2ccc(OCCN3CCOCC3)cc21 [Example 82, 6-(2-morpholinoethoxy)-3-(2,4-difluorophenyl)-2-(pyridin-3-yl)-1H-inden-1-one], which activity at 10 µM is on record?
A: 178%

Q: Which activity at 10 µM does the source give for O=C1C(c2ccccn2)=C(c2ccccc2)c2ccc(OCCN3CCOCC3)cc21 [Example 83, 6-(2-morpholinoethoxy)-3-phenyl-2-(pyridin-2-yl)-1H-inden-1-one] here?
A: 18%

Q: How did the activity at 10 µM turn out when O=C1C(c2ccc3c(c2)OCO3)=C(c2ccccc2)c2ccc(OCCN3CCOCC3)cc21 [Example 85, 2-(benzo[1,3]dioxol-5-yl)-6-(2-morpholinoethoxy)-3-phenyl-1H-inden-1-one] was run?
A: 77%

Q: For O=C1C(c2ccc(Cl)s2)=C(c2ccccc2)c2ccc(OCCN3CCOCC3)cc21 [Example 86, 2-(5-chlorothiophen-2-yl)-6-(2-morpholinoethoxy)-3-phenyl-1H-inden-1-one], which activity at 10 µM is on record?
A: 77%

Q: Cn1ccc2cc(C3=C(c4ccccc4)c4ccc(OCCN5CCOCC5)cc4C3=O)ccc21 [Example 87, 2-(1-methyl-1H-indol-5-yl)-6-(2-morpholinoethoxy)-3-phenyl-1H-inden-1-one] was tested. Which activity at 10 µM did it give?
A: 71%

Q: How did the activity at 10 µM turn out when O=C1C(c2ccc[nH]2)=C(c2ccccc2)c2ccc(OCCN3CCOCC3)cc21 [Example 90, 6-(2-morpholinoethoxy)-3-phenyl-2-(1H-pyrrol-2-yl)-1H-inden-1-one] was run?
A: 63%

Q: For O=C1C(c2cc3ccccc3o2)=C(c2ccccc2)c2ccc(OCCN3CCOCC3)cc21 [Example 91, 6-(2-morpholinoethoxy)-2-(benzofuran-2-yl)-3-phenyl-1H-inden-1-one], which activity at 10 µM is on record?
A: 67%

Q: For O=C1C(c2cnc3ccccc3c2)=C(c2cc(F)cc(F)c2)c2ccc(OCCN3CCS(=O)(=O)CC3)cc21 [Example 92, 3-(3,5-difluorophenyl)-6-[2-(1,1-dioxothiomorpholin-4-yl)ethoxy]-2-(quinolin-3-yl)-1H-inden-1-one hydrochloride salt], which activity at 10 µM is on record?
A: 262%

Q: COc1ccc(C2=C(c3cc(F)cc(F)c3)c3ccc(OCCN4CCS(=O)(=O)CC4)cc3C2=O)cn1 [Example 93, 3-(3,5-difluorophenyl)-2-(6-methoxypyridin-3-yl)-6-[2-(1,1-dioxothiomorpholin-4-yl)ethoxy]-1H-inden-1-one hydrochloride salt] was tested. Which activity at 10 µM did it give?
A: 155%

Q: Which activity at 10 µM does the source give for Cc1ccc(C2=C(c3cc(F)cc(F)c3)c3ccc(OCCN4CCS(=O)(=O)CC4)cc3C2=O)cc1 [Example 94, 3-(3,5-difluorophenyl)-6-[2-(1,1-dioxothiomorpholin-4-yl)ethoxy]-2-p-tolyl-1H-inden-1-one hydrochloride salt] here?
A: 109%

Q: How did the activity at 10 µM turn out when COc1ccc(C2=C(c3cc(F)cc(F)c3)c3ccc(OCCN4CCS(=O)(=O)CC4)cc3C2=O)cc1F [Example 95, 2-(3-fluoro-4-methoxyphenyl)-3-(3,5-difluorophenyl)-6-[2-(1,1-dioxothiomorpholin-4-yl)ethoxy]-1H-inden-1-one hydrochloride salt] was run?
A: 203%

Q: CS(=O)(=O)N1CCN(CCOc2ccc3c(c2)C(=O)C(c2cnc4ccccc4c2)=C3c2cc(F)cc(F)c2)CC1 [Example 96, 3-(3,5-difluorophenyl)-6-{2-[4-(methylsulfonyl)piperazin-1-yl]ethoxy}-2-(quinolin-3-yl)-1H-inden-1-one hydrochloride salt] was tested. Which activity at 10 µM did it give?
A: 152%

Q: Which activity at 10 µM does the source give for COc1ccc(C2=C(c3cc(F)cc(F)c3)c3ccc(OCCN4CCN(S(C)(=O)=O)CC4)cc3C2=O)cn1 [Example 97, 3-(3,5-difluorophenyl)-2-(6-methoxypyridin-3-yl)-6-{2-[4-(methylsulfonyl)piperazin-1-yl]ethoxy}-1H-inden-1-one hydrochloride salt] here?
A: 179%

Q: How did the activity at 10 µM turn out when Cc1ccc(C2=C(c3cc(F)cc(F)c3)c3ccc(OCCN4CCN(S(C)(=O)=O)CC4)cc3C2=O)cc1 [Example 98, 3-(3,5-difluorophenyl)-6-{2-[4-(methylsulfonyl)piperazin-1-yl]ethoxy}-2-p-tolyl-1H-inden-1-one hydrochloride salt] was run?
A: 146%

Q: For COc1ccc(C2=C(c3cc(F)cc(F)c3)c3ccc(OCCN4CCN(S(C)(=O)=O)CC4)cc3C2=O)cc1F [Example 99, 2-(3-fluoro-4-methoxyphenyl)-3-(3,5-difluorophenyl)-6-{2-[4-(methylsulfonyl)piperazin-1-yl]ethoxy}-1H-inden-1-one hydrochloride salt], which activity at 10 µM is on record?
A: 212%

Q: With COc1ccc(C2=C(c3cc(F)cc(F)c3)c3ccc(OCCC4CCN(S(C)(=O)=O)CC4)cc3C2=O)cn1 [Example 100, 3-(3,5-difluorophenyl)-2-(6-methoxypyridin-3-yl)-6-{2-[1-(methylsulfonyl)piperidin-4-yl]ethoxy}-1H-inden-1-one hydrochloride salt] as the compound, how does the activity at 10 µM read?
A: 185%

Q: CS(=O)(=O)N1CCC(CCOc2ccc3c(c2)C(=O)C(c2cnc4ccccc4c2)=C3c2cc(F)cc(F)c2)CC1 [Example 101, 3-(3,5-difluorophenyl)-6-{2-[1-(methylsulfonyl)piperidin-4-yl]ethoxy}-2-(quinolin-3-yl)-1H-inden-1-one hydrochloride salt] was tested. Which activity at 10 µM did it give?
A: 216%

Q: With COc1ccc(C2=C(c3cc(F)cc(F)c3)c3ccc(OCCC4CCN(S(C)(=O)=O)CC4)cc3C2=O)cc1F [Example 102, 3-(3,5-difluorophenyl)-2-(3-fluoro-4-methoxyphenyl)-6-{2-[1-(methylsulfonyl)piperidin-4-yl]ethoxy}-1H-inden-1-one] as the compound, how does the activity at 10 µM read?
A: 220%

Q: Which activity at 10 µM does the source give for Cc1ccc(C2=C(c3cc(F)cc(F)c3)c3ccc(OCCC4CCN(S(C)(=O)=O)CC4)cc3C2=O)cc1 [Example 103, 3-(3,5-difluorophenyl)-6-{2-[1-(methylsulfonyl)piperidin-4-yl]ethoxy}-2-p-tolyl-1H-inden-1-one] here?
A: 209%

Q: CS(=O)(=O)N1CCN(CCCOc2ccc3c(c2)C(=O)C(c2cnc4ccccc4c2)=C3c2cc(F)cc(F)c2)CC1 [Example 104, 3-(3,5-difluorophenyl)-6-{3-[4-(methylsulfonyl)piperazin-1-yl]propoxy}-2-(quinolin-3-yl)-1H-inden-1-one hydrochloride salt] was tested. Which activity at 10 µM did it give?
A: 124%

Q: How did the activity at 10 µM turn out when Cc1ccc(C2=C(c3cc(F)cc(F)c3)c3ccc(OCCCN4CCN(S(C)(=O)=O)CC4)cc3C2=O)cc1 [Example 105, 3-(3,5-Difluorophenyl)-6-{3-[4-(methylsulfonyl)piperazin-1-yl]propoxy}-2-p-tolyl-1H-inden-1-one hydrochloride salt] was run?
A: 99%

Q: For COc1ccc(C2=C(c3cc(F)cc(F)c3)c3ccc(OCCCN4CCN(S(C)(=O)=O)CC4)cc3C2=O)cc1F [Example 106, 2-(3-fluoro-4-methoxyphenyl)-3-(3,5-difluorophenyl)-6-{3-[4-(methylsulfonyl)piperazin-1-yl]propoxy}-1H-inden-1-one hydrochloride salt], which activity at 10 µM is on record?
A: 133%

Q: How did the activity at 10 µM turn out when COc1ccc(C2=C(c3cc(F)cc(F)c3)c3ccc(OCCCN4CCN(S(C)(=O)=O)CC4)cc3C2=O)cn1 [Example 107, 3-(3,5-difluorophenyl)-2-(6-methoxypyridin-3-yl)-6-{3-[4-(methylsulfonyl)piperazin-1-yl]propoxy}-1H-inden-1-one hydrochloride salt] was run?
A: 286%

Q: For Cc1ccc(C2=C(c3ccc(F)cc3F)c3ccc(OCCCN4CCN(S(C)(=O)=O)CC4)cc3C2=O)cc1 [Example 108, 3-(2,4-difluorophenyl)-6-{3-[4-(methylsulfonyl)piperazin-1-yl]propoxy}-2-p-tolyl-1H-inden-1-one], which activity at 10 µM is on record?
A: 111%

Q: For COc1ccc(C2=C(c3ccc(F)cc3F)c3ccc(OCCCN4CCN(S(C)(=O)=O)CC4)cc3C2=O)cn1 [Example 109, 3-(2,4-difluorophenyl)-6-{3-[4-(methylsulfonyl)piperazin-1-yl]propoxy}-2-(6-methoxypyridin-3-yl)-1H-inden-1-one], which activity at 10 µM is on record?
A: 177%

Q: With COc1ccc(C2=C(c3ccc(F)cc3F)c3ccc(OCCCN4CCN(S(C)(=O)=O)CC4)cc3C2=O)cc1F [Example 110, 2-(3-fluoro-4-methoxyphenyl)-3-(2,4-difluorophenyl)-6-{3-[4-(methylsulfonyl)piperazin-1-yl]propoxy}-1H-inden-1-one] as the compound, how does the activity at 10 µM read?
A: 207%

Q: How did the activity at 10 µM turn out when CS(=O)(=O)N1CCN(CCCOc2ccc3c(c2)C(=O)C(c2cnc4ccccc4c2)=C3c2ccc(F)cc2F)CC1 [Example 111, 3-(2,4-difluorophenyl)-6-{3-[4-(methylsulfonyl)piperazin-1-yl]propoxy}-2-(quinolin-3-yl)-1H-inden-1-one] was run?
A: 117%

Q: How did the activity at 10 µM turn out when Cc1ccc(C2=C(c3ccc(F)cc3F)c3ccc(OCCN4CCS(=O)(=O)CC4)cc3C2=O)cc1 [Example 112, 3-(2,4-difluorophenyl)-6-[2-(1,1-dioxothiomorpholin-4-yl)ethoxy]-2-p-tolyl-1H-inden-1-one] was run?
A: 70%

Q: Which activity at 10 µM does the source give for COc1ccc(C2=C(c3ccc(F)cc3F)c3ccc(OCCN4CCS(=O)(=O)CC4)cc3C2=O)cn1 [Example 113, 3-(2,4-difluorophenyl)-2-(6-methoxypyridin-3-yl)-6-[2-(1,1-dioxothiomorpholin-4-yl)ethoxy]-1H-inden-1-one] here?
A: 217%
